37 compounds from US10617680B2 (CELGENE QUANTICEL RESEARCH, INC., priority 2017, dated 2020) can be followed below.

pIC50: −log10 of the molar value. Where two headings read alike, the source gives them in different places.

The assay addresses CBP (Homo sapiens (Human), UniProt Q92793). Kind of assay: In vitro CBP inhibition (AlphaScreen, biotinylated H4-tetraacetyl peptide). Type of assay: binding. Summed up: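 His-tagged CBP expressed in E. coli (50 nM final) incubated with biotinylated H4K5/8/12/16(Ac) peptide (20 nM final) in 50 mM HEPES pH 7.3, 10 mM NaCl, 0.25 mM TCEP, 0.1% BSA, 0.005% Brij-35, 0.4% DMSO, 20 min at room temp.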
(In general: Alpha assays give light when donor and acceptor beads are brought close together.)

Setting [1] is: AlphaScreen, Table 29, read-out: CBP IC50.

CBP, sequence (Q92793 1081-1197): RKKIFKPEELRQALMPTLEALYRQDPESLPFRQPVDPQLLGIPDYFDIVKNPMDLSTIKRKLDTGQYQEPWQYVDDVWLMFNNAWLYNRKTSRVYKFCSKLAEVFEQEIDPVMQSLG

In general, pIC50 refers to −log10 of the IC50, conventionally taken in molar units. In the case of `Cn1cc(-c2cnn(-c3ccccc3C(=O)O)c2)c(C2CC2)cc1=O` [Example 211, 2-[4-(4-Cyclopropyl-1-methyl-6-oxo-1,6-dihydro-pyridin-3-yl)-pyrazol-1-yl]-benzoic acid], under setting [1], the pIC50 was greater than 6.30. As for `CC(c1ccccc1)n1cc(-c2cn(C)c(=O)cc2OCc2ccccc2)cn1` (stereo not shown) [Example 56, 4-(benzyloxy)-1-methyl-5-(1-(1-phenylethyl)-1H-pyrazol-4-yl) pyridin-2(1H)-one], the pIC50 under setting [1] was greater than 6.30. On the same count and under the same terms, as for `COC(=O)Cn1cc(-c2cn(C)c(=O)cc2-c2ccccc2)cn1` [Example 140, methyl 2-(4-(1-methyl-6-oxo-4-phenyl-1,6-dihydropyridin-3-yl)-1H-pyrazol-1-yl)acetate], the figure is greater than 6.30; as for `CC(C)Nc1ccc(-c2cc(=O)n(C)cc2-c2cnn(-c3cccc(F)c3C#N)c2)cn1` [Example 351, 2-fluoro-6-(4-(6-(isopropylamino)-1′-methyl-6′-oxo-1′,6′-dihydro-[3,4′-bipyridin]-3′-yl)-1H-pyrazol-1-yl)benzonitrile], greater than 6.30; as for `Cn1cc(-c2cnn(-c3cccc(Cl)c3C#N)c2)c(-c2ccc(C3CC3)nc2)cc1=O` [Example 366, 2-chloro-6-[4-[4-(6-cyclopropyl-3-pyridyl)-1-methyl-6-oxo-3-pyridyl]pyrazol-1-yl]benzonitrile], greater than 6.30. Still for that read-out and setting: for `CC(=O)N1CC(Oc2cc(=O)n(C)cc2-c2cnn(C(C)c3ccccc3)c2)C1` (stereo not shown) [Example 50, 4-((1-acetylazetidin-3-yl)oxy)-1-methyl-5-(1-(1-phenylethyl)-1H-pyrazol-4-yl)pyridin-2(1H)-one] the value was greater than 6.30; for `COc1cncc(-c2cc(=O)n(C)cc2-c2cnn(-c3ccccc3C#N)c2)c1` [Example 242, 2-(4-(5-methoxy-1′-methyl-6′-oxo-1′,6′-dihydro-[3,4′-bipyridin]-3′-yl)-1H-pyrazol-1-yl)benzonitrile], greater than 6.30. On the same count and under the same terms, as for `Cc1ccc(-c2cc(=O)n(C)cc2-c2cnn(Cc3ccccc3)c2)cc1` [Example 112, 5-(1-benzyl-1H-pyrazol-4-yl)-1-methyl-4-(p-tolyl)pyridin-2(1H)-one], the figure is greater than 6.30; as for `CCOc1cc(=O)n(C)cc1-c1cnn(-c2cc(OC3CC3)ccc2C(=O)O)c1` [Example 248, 4-Cyclopropoxy-2-[4-(4-ethoxy-1-methyl-6-oxo-1,6-dihydro-pyridin-3-yl)-pyrazol-1-yl]-benzoic acid], greater than 6.30.

For `Cn1cc(-c2cn(C)c(=O)cc2-c2ccccc2)cn1` [Example 107, 1-methyl-5-(1-methyl-1H-pyrazol-4-yl)-4-phenylpyridin-2(1H)-one], the negative-log IC50 (pIC50) under setting [1] is greater than 6.30. Same read-out and setting: as for `Cn1cc(-c2cnn(-c3cccc(Cl)c3C#N)c2)c(-c2ccc(NCC3CC3)nc2)cc1=O` [Example 348, 2-chloro-6-(4-{6-[(cyclopropylmethyl)amino]-1′-methyl-6′-oxo-1′,6′-dihydro-[3,4′-bipyridine]-3′-yl}-1H-pyrazol-1-yl)benzonitrile], the figure is greater than 6.30; as for `Cc1nn(C)cc1-c1cn(C)c(=O)cc1-c1ccccc1` [Example 136, 5-(1,3-dimethyl-1H-pyrazol-4-yl)-1-methyl-4-phenylpyridin-2(1H)-one], greater than 6.30.

Consider `Cn1cc(-c2cnn(Cc3ccccc3)c2)c(-c2ccc(C(N)=O)cc2)cc1=O` [Example 151, 4-(5-(1-benzyl-1H-pyrazol-4-yl)-1-methyl-2-oxo-1,2-dihydro-pyridin-4-yl)benzamide], for which the pIC50 under setting [1] was greater than 6.30. Regarding `Cn1cc(-c2cnn(-c3ccccc3C#N)c2)c(-c2ccc(C(N)=O)cc2)cc1=O` [Example 218, 4-{5-[1-(2-Cyano-phenyl)-1H-pyrazol-4-yl]-1-methyl-2-oxo-1,2-dihydro-pyridin-4-yl}-benzamide], the pIC50 under setting [1] was greater than 6.30. As to `Cn1cc(-c2cn(C)c(=O)cc2-n2ccc(C(=O)O)c2)cn1` [Example 84, 1-(1-methyl-5-(1-methyl-1H-pyrazol-4-yl)-2-oxo-1,2-dihydro-pyridin-4-yl)-1H-pyrrole-3-carboxylic acid], under setting [1], the negative logarithm of the IC50 (pIC50) is greater than 6.30. On the same count and under the same terms, for `CCOc1cc(=O)n(C)cc1-c1cnn(-c2cc(OC)ccc2C#N)c1` [Example 182, 2-[4-(4-Ethoxy-1-methyl-6-oxo-1,6-dihydro-pyridin-3-yl)-pyrazol-1-yl]-4-methoxy-benzonitrile] the value was greater than 6.30. On the same count and under the same terms, for `Cn1cc(-c2cnn(-c3ccccc3)c2)c(-c2ccccc2)cc1=O` [Example 128, 1-methyl-4-phenyl-5-(1-phenyl-1H-pyrazol-4-yl) pyridin-2(1H)-one] the value was greater than 6.30; for `COc1cc(-c2cc(=O)n(C)cc2-c2cnn(-c3cccc(Cl)c3C#N)c2)ccc1C` [Example 279, 2-chloro-6-(4-(4-(3-methoxy-4-methylphenyl)-1-methyl-6-oxo-1,6-dihydropyridin-3-yl)-1H-pyrazol-1-yl)benzonitrile], greater than 6.30; for `Cn1cc(-c2cnn(-c3ccccc3C#N)c2)c(-c2ccccc2)cc1=O` [Example 212, 2-[4-(1-Methyl-6-oxo-4-phenyl-1,6-dihydro-pyridin-3-yl)-pyrazol-1-yl]-benzonitrile], greater than 6.30. In the case of `COc1ccc(C#N)cc1-n1cc(-c2cn(C)c(=O)cc2-c2ccn(C)c(=O)c2)cn1` [Example 305, 3-(4-(1,1′-dimethyl-2′,6-dioxo-1,1′,2′,6-tetrahydro-[4,4′-bipyridin]-3-yl)-1H-pyrazol-1-yl)-4-methoxybenzonitrile], the pIC50 under setting [1] is greater than 6.30.

With `Cn1cc(-c2cnn(Cc3ccccc3)c2)c(-c2ccc(C(=O)O)cc2)cc1=O` [Example 155, 4-(5-(1-benzyl-1H-pyrazol-4-yl)-1-methyl-2-oxo-1,2-dihydropyridin-4-yl)benzoic acid], under setting [1], the negative logarithm of the IC50 (pIC50) was greater than 6.30. Still for that read-out and setting: for `CC(C)n1cc(-c2cn(C)c(=O)cc2-c2ccccc2)cn1` [Example 138, 5-(1-isopropyl-1H-pyrazol-4-yl)-1-methyl-4-phenylpyridin-2(1H)-one] the value was greater than 6.30; for `Cc1cc(-c2cc(=O)n(C)cc2-c2cnn(-c3ccccc3C#N)c2)cn(C)c1=O` [Example 239, 2-(4-(1,1′,5-trimethyl-6,6′-dioxo-1,1′,6,6′-tetrahydro-[3,4′-bipyridin]-3′-yl)-1H-pyrazol-1-yl)benzonitrile], greater than 6.30. For the compound `Cn1cc(-c2cnn(C(c3ccccc3)C3CC3)c2)ccc1=O` (stereo not shown) [Example 2], the negative logarithm of the IC50 (pIC50) is 5.30 to 6.30. Consider `CC(c1ccccc1)n1cc(-c2ccc(=O)n(C)c2)cn1` (stereo not shown) [Example 12, 1-methyl-5-(1-(1-phenylethyl)-1H-pyrazol-4-yl)pyridin-2(1H)-one], for which the pIC50 under setting [1] is 5.30 to 6.30. The same measure, in the same setting: as for `COc1cccc(C(C)n2cc(-c3ccc(=O)n(C)c3)cn2)c1` (stereo not shown) [Example 28, 5-(1-(1-(3-methoxy-phenyl)ethyl)-1H-pyrazol-4-yl)-1-methyl-pyridin-2(1H)--one], the figure is greater than 6.30; as for `CCOc1cc(=O)n(C)cc1-c1cnn(-c2cc(Oc3ccccc3)ccc2C#N)c1` [Example 183, 2-[4-(4-Ethoxy-1-methyl-6-oxo-1,6-dihydro-pyridin-3-yl)-pyrazol-1-yl]-4-phenoxy-benzonitrile], greater than 6.30; as for `CC(=O)N[C@@H]1CCN(c2cc(=O)n(C)cc2-c2cnn(Cc3ccccc3)c2)C1` [Example 72, (R)-N-(1-(5-(1-benzyl-1H-pyrazol-4-yl)-1-methyl-2-oxo-1,2-dihydropyridin-4-yl)pyrrolidin-3-yl)acctamide], 5.30 to 6.30. Regarding `Cn1cc(-c2cnn(-c3cccc(C4CC4)c3C#N)c2)c(-c2ccn(CCO)c(=O)c2)cc1=O` [Example 390, 2-cyclopropyl-6-[4-[4-[1-(2-hydroxyethyl)-2-oxo-4-pyridyl]-1-methyl-6-oxo-3-pyridyl]pyrazol-1-yl]benzonitrile], the pIC50 under setting [1] is greater than 6.30. Regarding `Cn1cc(-c2cnn(-c3ccccc3C#N)c2)c(-c2ccc(=O)[nH]c2)cc1=O` [Example 206, 2-[4-(1′-Methyl-6,6′-dioxo-1,6,1′,6′-tetrahydro-[3,4′]bipyridinyl-3′-yl)-pyrazol-1-y]benzonitrile], under setting [1], the pIC50 is greater than 6.30. As to `Cn1cc(-c2cnn(Cc3ccccc3)c2)c(OCCC(F)(F)F)cc1=O` [Example 92, 5-(1-benzyl-1H-pyrazol-4-yl)-1-methyl-4-(3,3,3-trifluoro-propoxy)pyridin-2(1H)-one], under setting [1], the pIC50 is greater than 6.30. Same read-out and setting: as for `CC(=O)N[C@H]1CCN(c2cc(=O)n(C)cc2-c2cnn(Cc3ccccc3)c2)C1` [Example 73, (S)-N-(1-(5-(1-benzyl-1H-pyrazol-4-yl)-1-methyl-2-oxo-1,2-dihydropyridin-4-yl)pyrrolidin-3-yl) acetamide], the figure is 5.30 to 6.30; as for `Cn1cc(-c2cnn(-c3ccccc3C#N)c2)c(-c2c[nH]c(=O)c(F)c2)cc1=O` [Example 240, 2-(4-(5-fluoro-1′-methyl-6,6′-dioxo-1,1′,6,6′-tetrahydro-[3,4′-bipyridin]-3′-yl)-1H-pyrazol-1-yl)benzonitrile], greater than 6.30; as for `Cn1cc(-c2cnn(-c3ccccc3C(=O)NC#N)c2)c(-c2ccc(Cl)cc2)cc1=O` [Example 291, 2-(4-(4-(4-chlorophenyl)-1-methyl-6-oxo-1,6-dihydropyridin-3-yl)-1H-pyrazol-1-yl)-N-cyanobenzamide], greater than 6.30. Still for that read-out and setting: as for `Cn1cc(-c2cnc(-c3ccccc3)o2)c(-c2ccccc2)cc1=O` [Example 397, 1-methyl-4-phenyl-5-(2-phenyloxazol-5-yl)pyridin-2(1H)-one], the figure is 5.30 to 6.30; as for `CCOc1cc(=O)n(C)cc1-c1cnn(-c2ccccc2C(=O)O)c1` [Example 249, 2-(4-(4-ethoxy-1-methyl-6-oxo-1,6-dihydropyridin-3-yl)-1H-pyrazol-1-yl)benzoic acid], greater than 6.30; as for `Cn1cc(-c2cnn(-c3ccccc3-c3nnn[nH]3)c2)c(-c2ccc(Cl)cc2)cc1=O` [Example 297, 5-(1-(2-(1H-tetrazol-5-yl)phenyl)-1H-pyrazol-4-yl)-4-(4-chlorophenyl)-1-methylpyridin-2(1H)-one], greater than 6.30.
